Assays:
[1] = molecular target: T1, GST-LXRβ ligand-binding domain (Homo sapiens, UniProt P55055, DUP175-175); assay: TR-FRETβ activity assay (LXRβ-LBD / NCoA3 coactivator peptide, prestimulated with 24(S)-25-epoxycholesterol); assay type: biochemical; parameters: key to behavior in FRET assay: ag=agonist; ia=inverse agonist; conditions: for EC50: read-out: FRETβ activity range (EC50); for behavior in FRET assay: agonist or inverse agonist
T1 construct: amino acids 156-461; NP009052; made in house; host or cells: E. coli
T1 sequence (P55055 with tags, fused parts or gaps DUP175-175): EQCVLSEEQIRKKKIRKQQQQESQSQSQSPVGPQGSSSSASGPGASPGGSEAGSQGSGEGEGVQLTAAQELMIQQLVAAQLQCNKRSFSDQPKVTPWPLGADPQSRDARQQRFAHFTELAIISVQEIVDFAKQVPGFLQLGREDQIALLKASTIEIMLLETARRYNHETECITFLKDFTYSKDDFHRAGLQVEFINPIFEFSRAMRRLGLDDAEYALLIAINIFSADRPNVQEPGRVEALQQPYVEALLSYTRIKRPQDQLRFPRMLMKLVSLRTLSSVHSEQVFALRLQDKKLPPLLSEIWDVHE
Protocol: The tested compounds were usually dissolved, tested and stored as 20 mM stock solutions in DMSO. […] Sulfonyl acetic acid derivatives are shelf stable as solid at rt for long time as reported by Griesbrecht et al. (Synlett 2010:374) or Faucher et al. (J. Med. Chem. 2004; 47:18). TR-FRETβ Activity Assay Recombinant GST-LXRβ ligand-binding domain (LBD; amino acids 156-461; NP009052; SEQ ID NO:2) was expressed in E. coli and purified via gluthatione-sepharose affinity chromatography. N-terminally biotinylated NCoA3 coactivator peptide (SEQ ID NO:1) was chemically synthesized (Eurogentec). […] Finally, a detection mix was added containing anti GST-Tb cryptate (CisBio; 610SAXLB) and Streptavidin-XL665 (CisBio; 610SAXLB) as fluorescent donor and acceptor, respectively, as well as the coactivator peptide and LXRβ-LBD protein (SEQ ID NO:2). The reaction was mixed thoroughly, equilibrated for 1 h at 4° C. and vicinity of LXRβ and coactivator peptide was detected by measurement of fluorescence in a VictorX4 multiplate reader (PerkinElmer Life Science) using 340 nm as excitation and 615 and 665 nm as emission wavelengths. Assays were performed in triplicates. Final Assay Concentrations of Components: 240 mM KCl, 1 μg/μL BSA, 0.002% Triton-X-100, […] anti GST-Tb cryptate, 2.5 ng/μL Streptavidin-XL665, coactivator peptide (400 nM), LXRβ protein ([…], i.e. 76 nM)

LXRβ full length (FL) = molecular target: T2, LXRβ full length (FL) (Homo sapiens, UniProt P55055, DUP175-175); assay: LXR Gal4 reporter transient transfection assay (M2H), Gal4β FL; assay type: cell-based; conditions: HEK293 cells; read-out: M2H Gal4β FL activity range (EC50)
T2 construct: the full length (FL) proteins of LXRα (amino acids 1-447); NP005684; NP009052; expressed in transfected cells; host or cells: HEK293
T2 sequence (P55055 with tags, fused parts or gaps DUP175-175): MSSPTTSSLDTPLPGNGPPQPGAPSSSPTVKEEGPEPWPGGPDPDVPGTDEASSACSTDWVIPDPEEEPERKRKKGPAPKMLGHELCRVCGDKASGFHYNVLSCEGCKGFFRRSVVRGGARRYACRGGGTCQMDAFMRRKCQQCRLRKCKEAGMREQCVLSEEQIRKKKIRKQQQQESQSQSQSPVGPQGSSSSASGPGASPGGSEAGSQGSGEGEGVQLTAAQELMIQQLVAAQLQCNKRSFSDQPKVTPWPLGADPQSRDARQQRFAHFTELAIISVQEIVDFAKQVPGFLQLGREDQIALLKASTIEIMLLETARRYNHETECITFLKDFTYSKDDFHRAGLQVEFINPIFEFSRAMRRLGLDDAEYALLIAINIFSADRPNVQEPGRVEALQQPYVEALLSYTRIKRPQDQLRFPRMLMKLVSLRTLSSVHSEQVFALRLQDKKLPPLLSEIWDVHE
Protocol: (§1) The tested compounds were usually dissolved, tested and stored as 20 mM stock solutions in DMSO. Since sulfonyl acetic acid derivatives tend to decarboxylate under these conditions, these stock solutions were prepared, tested and stored as 20 mM DMSO stock solutions containing 100 mM trifluoroacetic acid (5 equivalents). Sulfonyl acetic acid derivatives are shelf stable as solid at rt for long time as reported by Griesbrecht et al. (Synlett 2010:374) or Faucher et al. (J. Med. Chem. 2004; 47:18).
(§2) LXR Gal4 Reporter Transient Transfection Assays
(§3) LXRα and LXRβ activity status was determined via detection of interaction with coactivator and corepressor proteins in mammalian two-hybrid experiments (M2H). For this, via transient transfection the full length (FL) proteins of LXRα (amino acids 1-447; NP005684; SEQ ID NO:7) or LXRβ-(amino acids 1-461; NP009052; SEQ ID NO:8) or the ligand-binding domains (LBD) of LXRα (amino acids 155-447 SEQ ID NO:3) or LXRβ (amino acids 156-461; SEQ ID NO:4) were expressed from pCMV-AD (Stratagene) as fusions to the transcriptional activation domain of NFkB. As cofactors, domains of either the steroid receptor coactivator 1 (SRC1; amino acids 552-887; SEQ ID NO:5) or of the corepressor NCoR (amino acids 1903-2312 SEQ ID NO:6) were expressed as fusions to the DNA binding domain of the yeast transcription factor GAL4 (from pCMV-BD; Stratagene). Interaction was monitored via activation of a coexpressed Firefly Luciferase Reporter gene under control of a promoter containing repetitive GAL4 response elements (vector pFRLuc; Stratagene). Transfection efficiency was controlled via cotransfection of constitutively active pRL-CMV Renilla reniformis luciferase reporter (Promega). HEK293 cells were grown in minimum essential medium (MEM) with 2 mM L-glutamine and Earle's balanced salt solution supplemented with 8.3% fetal bovine serum, 0.1 mM non-essential amino acids, 1 mM sodium pyruvate, at 37° C. in 5% CO2. 3.5×10^4 cells/well were plated in 96-well cell culture plates in growth medium supplemented with 8.3% fetal bovine serum for 16-20 h to ˜90% confluency. For transfection, medium was taken off and LXR and cofactor expressing plasmids as well as the reporter plasmids are added in 30 μL OPTIMEM/well including polyethylene-imine (PEI) as vehicle. Typical amounts of plasmids transfected/well: pCMV-AD-LXR (5 ng), pCMV-BD-cofactor (5 ng), pFR-Luc (100 ng), pRL-CMV (0.5 ng). Compound stocks were prepared in DMSO, prediluted in MEM to a total volume of 120 μL, and added 4 h after addition of the transfection mixture (final vehicle concentration not exceeding 0.2%). Cells were incubated for additional 16 h, lysed for 10 min in 1× Passive Lysis Buffer (Promega) and Firefly and Renilla luciferase activities were measured sequentially in the same cell extract using buffers containing D-luciferine and coelenterazine, respectively. Measurements of luminescence were done in a BMG-Iuminometer.

LXRα full length (FL) = molecular target: T3, LXRα full length (FL) (Homo sapiens, UniProt Q13133); assay: LXR Gal4 reporter transient transfection assay (M2H), Gal4α FL; assay type: cell-based; conditions: HEK293 cells; for EC50: read-out: M2H Gal4α FL activity range (EC50)
T3 construct: the full length (FL) proteins of LXRα (amino acids 1-447); NP005684; expressed in transfected cells; host or cells: HEK293
T3 sequence (Q13133 1-447): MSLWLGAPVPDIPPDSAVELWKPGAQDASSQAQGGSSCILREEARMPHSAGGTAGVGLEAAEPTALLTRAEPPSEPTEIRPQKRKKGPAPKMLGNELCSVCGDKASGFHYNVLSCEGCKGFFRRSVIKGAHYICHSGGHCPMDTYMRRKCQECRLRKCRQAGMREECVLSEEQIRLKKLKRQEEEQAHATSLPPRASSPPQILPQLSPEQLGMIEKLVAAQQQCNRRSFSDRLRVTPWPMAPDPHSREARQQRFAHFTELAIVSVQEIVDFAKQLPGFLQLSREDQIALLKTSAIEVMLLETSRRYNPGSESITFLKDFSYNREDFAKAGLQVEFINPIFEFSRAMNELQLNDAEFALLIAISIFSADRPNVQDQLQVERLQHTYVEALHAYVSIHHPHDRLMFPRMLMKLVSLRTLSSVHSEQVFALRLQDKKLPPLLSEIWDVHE
Protocol: as §1, §2, §3

[2] = 1 μM 24(S)-25-epoxycholesterol as prestimulating agonist

| EC50 [1, 2] [µM] | behavior in FRET assay [1] | EC50 (LXRβ full length (FL)) [µM] | EC50 (LXRα full length (FL)) [µM] | M2H Gal4α FL activity range (EC50) (LXRα full length (FL)) | FRETβ activity range (EC50) [1, 2] | SMILES |
| --- | --- | --- | --- | --- | --- | --- |
| 0.1 to 1 | ia | 0.1 to 1 | 0.1 to 1 | – | – | Cc1ccc2ccccc2c1S(=O)(=O)N(Cc1ccc(-c2cccc(S(=O)(=O)CC(=O)O)c2)cc1)Cc1ccc(C(F)(F)F)o1 [Example 10, 2-((4′-(((2-Methyl-N-((5-(trifluoromethyl)furan-2-yl)methyl)naphthalene)-1-sulfonamido)methyl)[1,1′-biphenyl]-3-yl)sulfonyl)acetic acid] |
| 1 to 10 | ag | 0.1 to 1 | – | inactive | – | O=C(O)CS(=O)(=O)c1cccc(-c2ccc(CN(Cc3ccc(C(F)(F)F)o3)S(=O)(=O)c3c(Cl)cccc3Cl)cc2)c1 [Example 10/1] |
| 1 to 10 | ia | 1 to 10 | 1 to 10 | – | – | Cc1cc(C)c(S(=O)(=O)N(Cc2ccc(-c3cccc(S(=O)(=O)CC(=O)O)c3)cc2)Cc2cccc(C(F)(F)F)c2)c(C)c1 [Example 11, 2-((4′-(((2,4,6-Trimethyl-N-(3-(trifluoromethyl)benzyl)phenyl)sulfonamido)methyl)-[1,1′-biphenyl]-3-yl)sulfonyl)acetic acid] |
| 1 to 10 | ag | 1 to 10 | – | inactive | – | Cc1cc(F)c(S(=O)(=O)N(Cc2ccc(-c3cccc(S(=O)(=O)CC(=O)O)c3)cc2)Cc2ccc(C(F)(F)F)o2)c(F)c1 [Example 14/1] |
| 1 to 10 | – | 1 to 10 | 1 to 10 | – | – | Cc1cc(C)c(S(=O)(=O)N(Cc2ccc(-c3cccc(S(=O)(=O)CC(=O)O)c3)cc2)C(C)(C)c2ccc(C(F)(F)F)o2)c(C)c1 [Example 17, 2-((4′-(((2,4,6-Trimethyl-N-(2-(5-(trifluoromethyl)furan-2-yl)propan-2-yl)phenyl)sulfon-amido)methyl)-[1,1′-biphenyl]-3-yl)sulfonyl)acetic acid] |
| 1 to 10 | ia | 1 to 10 | 1 to 10 | – | – | Cc1cc(C)c(S(=O)(=O)N(CCc2ccc(C(F)(F)F)o2)Cc2ccc(-c3cccc(S(=O)(=O)CC(=O)O)c3)cc2)c(C)c1 [Example 17/1] |
| 0.1 to 1 | ia | < 0.1 | < 0.1 | – | – | CC(C)(C(=O)O)c1cccc(-c2ccc(CN(Cc3ccc(C(F)(F)F)o3)S(=N)(=O)c3cccc4ccccc34)cc2)c1 (centres unmarked) [Example 26, 2-Methyl-2-(4′-((N-((5-(trifluoromethyl)furan-2-yl)methyl)naphthalene-1-sulfonoamid-imidamido)methyl)-[1,1′-biphenyl]-3-yl)propanoic acid] |
| 0.1 to 1 | ia | < 0.1 | < 0.1 | – | – | Cc1ccc2ccccc2c1[S+]([O-])N(Cc1ccc(-c2cccc(C(C)(C)C(=O)O)c2)cc1)Cc1ccc(C(F)(F)F)o1 (centres unmarked) [Example 27, 2-Methyl-2-(4′-((((2-methylnaphthalen-1-yl)sulfinyl)((5-(trifluoromethyl)furan-2-yl)methyl)amino)methyl)-[1,1′-biphenyl]-3-yl)propanoic acid] |
| – | – | 0.1 to 1 | 0.1 to 1 | – | inactive | Cc1ccc2cccnc2c1S(=O)(=O)N(Cc1ccc(-c2cccc(C(C)(C)C(=O)NS(C)(=O)=O)c2)cc1)Cc1ccc(C(F)(F)F)o1 [Example 29, 2-Methyl-2-(4′-(((7-methyl-N-((5-(trifluoromethyl)furan-2-yl)methyl)quinoline)-8-sulfon-amido)methyl)-[1,1′-biphenyl]-3-yl)-N-(methylsulfonyl)propanamide] |
| 0.1 to 1 | ag | < 0.1 | < 0.1 | – | – | Cc1ccc2cccnc2c1S(=O)(=O)N(Cc1ccc(-c2cccc(C(C)(C)C(=O)NO)c2)cc1)Cc1ccc(C(F)(F)F)o1 [Example 30, N-Hydroxy-2-methyl-2-(4′-(((7-methyl-N-((5-(trifluoromethyl)furan-2-yl)methyl)quinoline)-8-sulfonamido)methyl)-[1,1′-biphenyl]-3-yl)propanamide] |

— US20200115357A1, “LIVER X RECEPTORS (LXR) MODULATORS” (Phenex-FXR GmbH, priority 2017, published 2020)
